# From patent US5874597A, “Certain aminosterol compounds and pharmaceutical compositions including these compounds” (priority 1995, dated 1999)
# Entries after “also recorded” stand apart in the source; their conditions may differ.
# Key:
# [1] = system: Human ovarian carcinoma SKOV3; test: growth inhibition of SKOV3; type: cell-based
# Source text: (§1) As set forth in Table 7 below, all malignant tumors evaluated in tissue culture, endothelial cells and vascular smooth muscle cells were sensitive to inhibition. Thus, compound 1436 has application in the control of growth factor dependent proliferation of many types of tissue.
# [2] = system: Xenopus tadpole (stage 59-60); test: Xenopus tadpole assay; type: in vivo, Xenopus laevis; conditions: 10 μg/ml; about 1 hour
# [3] = fasting blood glucose in mice; type: in vivo, mouse; conditions: intravenous; vs. Group 1
# Description: To study the effect of steroid administrator or the NHE responsible for secretion of insulin, several of the aminosterols from shark liver were administered to fasting mice. Male CD-1 mice were assigned to one of four treatment groups. Whole blood glucose was tested using glucometer (Lifescan Glucometer II and One Touch test strips). Statistical analysis was via one-way analysis of variance (ANOVA) followed by subsequent Bonferonni's t-test.
# [4] = system: vitelline capillaries of chick embryo; test: chick embryo vitelline capillary regression assay; type: in vivo; conditions: in vivo
# Description: Using the chick embryo vitelline capillaries assay, compounds were tested for their ability to induce capillary regression. Each compound was applied in 0.1 ml of 15% Ficol 400 and PBS onto the embryo, and vascular regression was assessed after 60 minutes.
# The 3-day chick embryo consists of an embryonic disc from which numerous vessels emerge and return, forming a "figure 8"-shaped structure--the embryo in the center with vascular loops extending outward over both poles. […] Following a lag period of around 15 minutes, the constriction of continuity between capillary and secondary vessels, generally on the "venous" side, was observed. Continued pulsatile blood flow progressed, resulting in a "swelling" of the blind tube, followed by a pinching off of the remaining connection and formation of an enclosed vascular sac resembling a "blood island." This process progressed until only the largest vessels remained intact.
# [5] = system: NHE; test: direct inhibition of NHE
# Source text: Moreover, other aminosterols have shown anti-angiogenic activity. Compounds were subjected to a various assays, including the chick embryo capillary regression assay, the tadpole assay, the assay for inhibition of endothelial cord formation, and the assay for direct inhibition of NHE, as described above, to determine their utilities. As evident from the above data, correlation among the results from the chick, tadpole and in vitro inhibition of endothelial cell cord formation assays is excellent.
# [6] = system: B16 melanoma; test: suppression of B16 melanoma growth in C57B mice; type: in vivo, mouse
# Description: The growth of B16 melanoma in C57B mice is dependent upon neovascularization.
# Using the growth of B16 melanoma cells in C57B mice, a recognized model for the evaluation of inhibitors of angiogenesis on the growth of cancers, the effects of subcutaneous, intraperitoneal and oral administration of squalamine were evaluated.
# Based on the idea that tumor growth involves both the clonal expansion of a malignant cell along with the development of a supporting vascular supply, a combination of compound 1436 with squalamine was tested to determine whether it would achieve a synergistic effect on solid tumor growth. This concept was evaluated in the B16 melanoma model.
# Animals were implanted with B16 melanoma followed by treatment with compound 1436 or 1256 administered in a combined schedule or separately. […] Thus, a combination of these two compounds achieves a therapeutic benefit in tumors dependent on neovascularization that may prevent metastatic spread.
# [7] = system: Human coronary artery smooth muscle cells; test: proliferation of human coronary artery smooth muscle in vitro; type: cell-based; conditions: FIG. 15
# Source text: as §1
# Aminosterols of the invention may also have utility in inhibiting the growth factor mediated proliferation of smooth muscle within the artery. Following coronary angioplasty, reocclusion commonly occurs, secondary to reparative proliferation of the vascular smooth muscle within the wall of the surgically manipulated blood vessel. This process generally takes place over the course of 7-10 days. To evaluate whether an agent could prevent the growth factor mediated proliferation of smooth muscle within the artery, compound 1436 was evaluated in vitro for its effect on the proliferation of human coronary artery smooth muscle. Results for compound 1436 are shown in FIG. 13, and those for squalamine are shown in FIG. 14, with FIG. 15 being a composite logarithmic plot.
# [8] = arterial resistance in the rat after i.v. administration; type: in vivo
# Description: A 200-g rat was catheterized in the right carotid artery, and the compound was introduced over a ten-second period to a total dosage of 5 mg/kg. Within 30 seconds, the mean arterial pressure had fallen from about 100 mm Hg to about 70 mm Hg, with a marked reduction in pulse pressure from about 40 mm to about 10 mm. […] If cardiac output was basically unaffected, reduction in blood pressure would have resulted principally from a reduction in system resistance.
# At that time, 40 μg of noradrenaline was introduced.
# [9] = system: L1210 lymphoblastic leukemia; test: mouse L1210 leukemia model, survival; type: in vivo; conditions: highest dose, 10 mg/kg every 3 days i.p.
# [10] = growth and weight gain of C57B mice; type: in vivo, mouse; conditions: 10 mg/kg QTD i.p.; 6 doses, about 1 month
# Description: Animals were dosed QTD (i.p.) starting on Day 1. […] Animals receiving 5 mg/kg QTD experienced about a 50% reduction in growth, compared to untreated controls, while animals receiving 1 mg/kg QTD were affected by about 10%. […] They appeared very much like hypophysectamized animals might appear.
# [11] = molecular target: rabbit NHE3 (Oryctolagus cuniculus, UniProt P26432); test: inhibition of rabbit NHE3 in transfected PS120 fibroblasts (internal pH, BCECF-AM)
# Sequence of rabbit NHE3 (P26432 30-832): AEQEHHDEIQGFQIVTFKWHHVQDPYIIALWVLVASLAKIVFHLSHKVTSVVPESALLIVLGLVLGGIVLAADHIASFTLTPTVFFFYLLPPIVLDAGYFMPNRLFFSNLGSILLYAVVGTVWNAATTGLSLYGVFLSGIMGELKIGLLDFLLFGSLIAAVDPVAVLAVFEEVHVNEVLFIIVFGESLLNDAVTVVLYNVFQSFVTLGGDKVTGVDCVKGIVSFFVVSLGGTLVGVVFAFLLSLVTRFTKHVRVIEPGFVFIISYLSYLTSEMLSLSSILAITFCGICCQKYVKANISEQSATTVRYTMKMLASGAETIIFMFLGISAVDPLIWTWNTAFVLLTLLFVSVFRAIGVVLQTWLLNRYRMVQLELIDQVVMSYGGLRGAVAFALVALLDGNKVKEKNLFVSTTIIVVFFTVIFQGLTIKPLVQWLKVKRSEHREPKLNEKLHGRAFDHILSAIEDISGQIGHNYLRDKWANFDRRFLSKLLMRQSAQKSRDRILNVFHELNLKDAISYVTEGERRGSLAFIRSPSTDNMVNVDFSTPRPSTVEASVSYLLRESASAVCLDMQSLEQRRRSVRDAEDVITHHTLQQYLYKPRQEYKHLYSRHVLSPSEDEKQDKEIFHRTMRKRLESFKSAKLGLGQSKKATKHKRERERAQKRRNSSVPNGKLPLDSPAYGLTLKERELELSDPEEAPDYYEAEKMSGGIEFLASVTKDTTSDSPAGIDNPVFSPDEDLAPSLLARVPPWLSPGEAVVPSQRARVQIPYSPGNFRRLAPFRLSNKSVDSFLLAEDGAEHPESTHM
# Description: Internal pH was measured either following acid loading or in the absence of an acid-loading challenge, with the results shown in FIGS. 1A and 1B.
# Specifically, PS120 fibroblasts transfected with rabbit NHE3 were grown in supplemented Dulbecco's-modified Eagle's medium as described by Levine et al., J. Biol. Chem. 268, 1993, 25527-25535. […] For cells not acid-preloaded, the actual internal pH value was monitored as a function of time following addition of squalamine, with the results depicted in FIG. 1B.
# PS120 fibroblasts transfected with rabbit NHE3 were grown and acid preloaded by exposure to 40 mM NH4 Cl as described above in conjunction with FIGS. 1A and 1B. Internal cellular pH changes expressed as the rate of pH recovery as a function of restored extracellular sodium ion concentration following exposure to 10 μg/ml of the compound were assayed with the fluorescent dye BCECF-AM as described above.
# [12] = system: LLC; test: LLC MTT; type: cell-based; conditions: Lewis lung carcinoma; Table II; read-out: LLC MTT, Minimum Effective Concentration
# [13] = system: human microvascular cells; test: inhibition of endothelial cell cord formation in vitro; type: cell-based; conditions: at cord-inhibiting concentrations
# Source text: Endothelial cells have the capacity in vitro to form tubular aggregates resembling capillaries in various early stages of formation. This conversion occurs under relatively specific conditions, in which essential growth factors along with an effective substratum are provided. It has been shown that both the interaction of growth factors with the endothelial cell and its attachment to a substratum activate the NHE. The activation of this exchanger is believed to be required for subsequent morphologic transformation of the endothelial cell into a multicellular tubular structure.
# To assess the effect of compounds on the cord-like structures formed by human microvascular cells when plated in the presence of VEGF (Vascular Endothelial Growth Factor) and basic fibroblast growth factor on a collagen matrix, a standard cord formation assay was used.
# [14] = system: chorioallantoic membrane capillaries; test: chorioallantoic membrane (CAM) model, inhibition of capillary growth; type: in vivo, chick; conditions: for Percentage positive, Assay 1 / Percentage positive, Assay 2 / Percentage positive, Mean: 3-Day Embryo
# Source text: The growing capillaries within the chorioallantoic membrane model (CAM model) have been used as a system in which to evaluate the effect of agents on their potential to inhibit new vessel growth. Neovascularization occurs most aggressively over the first week of embryonic development. Thereafter capillary growth is characterized by principally "elongation" rather than "de novo" formation.
# In the standard assay, agents are applied locally to a region of the embryo over which neovascularization will occur. Agents are assessed by their ability to inhibit this process, as evaluated by visual examination about 7 days after application. […] The assay utilized is described in detail in Auerbach et al., Pharm. Ther. 51, 1991, 1-11.
# [15] = system: human foreskin fibroblasts; test: growth inhibition of human fibroblasts; conditions: 10 μg/ml
# [16] = system: human melanoma 1205Lu; test: suppression of human melanoma 1205Lu in RAG-1 mice; type: in vivo; conditions: 10, 20, 40 mg/kg/d
# Source text: As apparent from FIG. 5, melanoma 1205Lu develops aggressively in RAG-1 mice after implantation.
# [17] = system: human epithelial cell line MCF 10A; test: growth inhibition of human epithelial cells; conditions: 10 μg/ml
# [18] = system: human umbilical venous endothelial cells; test: LPS/TNF-α-induced neutrophil adherence to human umbilical venous endothelial cells; type: cell-based; conditions: three different subjects; LPS or TNF-α activated
# Source text: Methods 109, 1988, 175-184.
# [19] = 20 μg, * = some vascular irritation noted
# [20] = 40 μg, * = some vascular irritation noted
structure (smiles),measurement,setting,value
"CC(C)C(CO)(CC[C@@H](C)[C@H]1CC[C@H]2[C@@H]3[C@H](O)C[C@H]4C[C@@H](NCCCNCCCCN)CC[C@]4(C)[C@H]3CC[C@]12C)OS(=O)(=O)O (single isomer, unassigned) [Compound 1437]",anticancer activity against SKOV3,[1],"anticancer activity against the human ovarian carcinoma, SKOV3"
same,tadpole response,[2],"Epithelium covering the embryonic portions of the animal, such as the tail and antennae, began to slough off in sheets; also recorded: the larval skin was observed to shed off in a sheet"
same,fasting blood glucose effect,[3],caused hyperglycemia in mice
C[C@H](CCC(=O)O)[C@H]1CC[C@H]2[C@@H]3CC[C@H]4C[C@@H](NCCCNCCCCN)CC[C@]4(C)[C@H]3CC[C@]12C [Compound 319],effect on vitelline capillaries / chick embryo,[4],especially active
same,potency as an NHE inhibitor,[5],superior to squalamine
same,tadpole response,[2],common vascular occlusive effect
same,control of B16 melanoma,"[6]; compound 319 subcutaneous, C57B mice, FIG. 6",almost comparable to squalamine
CC(C)[C@@H](CC[C@@H](C)[C@H]1CC[C@H]2[C@@H]3[C@H](O)C[C@H]4C[C@@H](NCCCNCCCCNCCCN)CC[C@]4(C)[C@H]3CC[C@]12C)OS(=O)(=O)O [Compound 1436],suppression of growth of human coronary artery smooth muscle,[7],suppress in vitro the growth of human coronary artery smooth muscle
same,effect on vitelline capillaries / chick embryo,[4],about the same potency as squalamine
same,reversibility of effect,[8]; 40 μg noradrenaline,readily reversible
same,persistence of effect,[8]; followed for 30 minutes,without significant change
same,prolongation of life,[9],significant prolongation of life
same,tadpole response,[2],"common vascular occlusive effect; also recorded: Gradual reduction in overall activity; also recorded: Heart beat remained strong, suggesting nervous system depression; also recorded: Melanocytes over head and tail began to swell; also recorded: dramatic disruption of melanocytes over its head, trunk, and tail; also recorded: No effects are observed on epithelial cell integrity, vascular flow, erythrocyte volume, tissue integrity, muscle fiber striation, or GI tract activity"
same,growth inhibition in mice,[10],growth was almost completely inhibited
same,impact on tumor volume,[6]; compound 1436 10 mg/kg/every 3 days alone,no significant impact on tumor volume
same,fasting blood glucose effect,[3],caused hyperglycemia in mice
same,inhibition of rabbit NHE3,"[11]; 10 μg/ml, acid-preloaded 40 mM NH4Cl",inhibit rabbit NHE3
CC(C)CCC[C@@H](C)[C@H]1CC[C@H]2[C@@H]3CC[C@H]4C[C@@H](NCCCNCCCCNCCCN)CC[C@]4(C)[C@H]3CC[C@]12C [drawing 82],minimal effective concentration,[12],3 µg/mL
CC(C)[C@@H](CC[C@@H](C)[C@H]1CC[C@H]2[C@@H]3[C@H](O)C[C@H]4C[C@@H](NCCCNCCCCN)CC[C@]4(C)[C@H]3CC[C@]12C)OS(=O)(=O)O [squalamine],suppression of growth of human coronary artery smooth muscle,[7],suppress in vitro the growth of human coronary artery smooth muscle
same,effect on cell viability or proliferation in cord assay,[13],does not appear to profoundly affect cell viability or proliferation
same,effect on vitelline capillaries / chick embryo,[4],disrupt vitelline capillaries in 3- to 5-day chick embryos; also recorded: No hemorrhage was seen; also recorded: absence of hemolysis; also recorded: especially active
same,"Percentage positive, Assay 1",[14]; 0.65 μg,28%
same,"Percentage positive, Assay 1",[14]; 1.25 μg,18%
same,"Percentage positive, Assay 2",[14]; 1.25 μg,18%
same,"Percentage positive, Mean",[14]; 1.25 μg,18%
same,"Percentage positive, Assay 1",[14]; 2.5 μg,35%
same,"Percentage positive, Assay 2",[14]; 2.5 μg,18%
same,"Percentage positive, Mean",[14]; 2.5 μg,27%
same,"Percentage positive, Assay 1",[14]; 5.0 μg,91%
same,"Percentage positive, Assay 2",[14]; 5.0 μg,57%
same,"Percentage positive, Mean",[14]; 5.0 μg,74%
same,"Percentage positive, Mean",[14]; 20 μg,55%
same,"Percentage positive, Assay 1",[14]; [19],52* %
same,"Percentage positive, Assay 2",[14]; [19],58* %
same,"Percentage positive, Mean",[14]; 40 μg,32%
same,"Percentage positive, Assay 1",[14]; [20],50* %
same,"Percentage positive, Assay 2",[14]; [20],13* %
same,"positive, Assay 1 (count)","[14]; 13-Day Embryo, 5.0 μg",0/26
same,inhibitory effect on older CAM,"[14]; 13-day old chick, ten times 0.65 μg",no inhibitory effect
same,growth of fibroblast line,[15],no effect
same,tadpole response,[2],blood flow through the capillaries of the tail shut down; also recorded: unaltered blood flow through the fine capillaries of the hands and feet; also recorded: common vascular occlusive effect; also recorded: Vascular occlusion in fine capillaries of tail; also recorded: No effect on vascular flow through hands or feet
same,suppression of growth of melanoma 1205Lu,[16],clear suppression of tumor growth in a dose-dependent fashion; also recorded: reversible
same,growth of epithelial line,[17],no effect
same,impact on tumor volume,[6]; squalamine 5 mg/kg/day alone,no significant impact on tumor volume
same,suppression of B16 tumor volume,"[6]; squalamine s.c., i.p. or oral, C57B mice",dose-dependent suppression of tumor volume
same,body weight and hematologic parameters,[6]; squalamine-treated mice,no significant depression
same,inhibition of neutrophil adherence,[18],no inhibition
same,specificity NHE3 over NHE1,[11],specificity for NHE3 over NHE1
same,inhibition of NHE3 (Km and Vmax),"[11]; 5 μg/ml, acid-preloaded 40 mM NH4Cl",inhibited NHE3 with respect to proton concentration at both Km and Vmax levels
same,resting pH of cells,"[11]; 5 μg/ml, not acid-preloaded",the resting pH of these cells was also inhibited
